Experimental findings from ChEMBL document CHEMBL1221250, “Modification at the acidic domain of RXR agonists has little effect on permissive RXR-heterodimer activation” (Bioorg Med Chem Lett, 2010) are described below.

The target in assay [1] is T1, Peroxisome proliferator-activated receptor gamma (Homo sapiens) (UniProt P37231).
T1 sequence (whole entry): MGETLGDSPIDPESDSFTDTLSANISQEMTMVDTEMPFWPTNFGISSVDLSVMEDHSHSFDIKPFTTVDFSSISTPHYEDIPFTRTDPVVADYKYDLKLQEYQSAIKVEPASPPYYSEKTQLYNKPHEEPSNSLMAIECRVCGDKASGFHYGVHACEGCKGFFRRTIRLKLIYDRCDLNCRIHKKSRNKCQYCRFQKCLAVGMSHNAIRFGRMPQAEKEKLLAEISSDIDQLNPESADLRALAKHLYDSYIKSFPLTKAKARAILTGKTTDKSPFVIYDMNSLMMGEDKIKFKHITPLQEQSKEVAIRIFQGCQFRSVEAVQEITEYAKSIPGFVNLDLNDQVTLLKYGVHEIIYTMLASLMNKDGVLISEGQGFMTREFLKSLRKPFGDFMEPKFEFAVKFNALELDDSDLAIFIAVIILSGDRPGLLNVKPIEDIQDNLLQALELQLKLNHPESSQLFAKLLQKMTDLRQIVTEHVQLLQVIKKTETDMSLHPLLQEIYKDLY
Description: Transactivation of PPARgamma.

Assay [2] addresses T2, Oxysterols receptor LXR-alpha (Homo sapiens) (UniProt Q13133).
T2 sequence (whole entry): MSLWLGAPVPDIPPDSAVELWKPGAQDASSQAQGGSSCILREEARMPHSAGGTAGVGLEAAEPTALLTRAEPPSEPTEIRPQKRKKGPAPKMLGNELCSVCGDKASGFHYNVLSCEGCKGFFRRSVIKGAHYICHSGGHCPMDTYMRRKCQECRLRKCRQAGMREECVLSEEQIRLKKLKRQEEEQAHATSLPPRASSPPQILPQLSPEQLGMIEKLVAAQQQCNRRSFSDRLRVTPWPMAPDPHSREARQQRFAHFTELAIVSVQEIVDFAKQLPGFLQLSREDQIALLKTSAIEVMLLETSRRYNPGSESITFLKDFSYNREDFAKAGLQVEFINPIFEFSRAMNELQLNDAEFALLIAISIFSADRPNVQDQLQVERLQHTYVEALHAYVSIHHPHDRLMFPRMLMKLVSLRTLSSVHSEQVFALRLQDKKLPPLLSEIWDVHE
The assay is described as follows: Transactivation of LXRalpha.

Assay [3] deals with RXR alpha/PPAR gamma (Homo sapiens) (UniProt P37231+P19793). Description: Transactivation of PPARgamma/RXRalpha heterodimer. The assay is classed as protein-complex assay.
The target in assay [4] is T3, Retinoic acid receptor alpha (Homo sapiens) (UniProt P10276).
T3 sequence (whole entry): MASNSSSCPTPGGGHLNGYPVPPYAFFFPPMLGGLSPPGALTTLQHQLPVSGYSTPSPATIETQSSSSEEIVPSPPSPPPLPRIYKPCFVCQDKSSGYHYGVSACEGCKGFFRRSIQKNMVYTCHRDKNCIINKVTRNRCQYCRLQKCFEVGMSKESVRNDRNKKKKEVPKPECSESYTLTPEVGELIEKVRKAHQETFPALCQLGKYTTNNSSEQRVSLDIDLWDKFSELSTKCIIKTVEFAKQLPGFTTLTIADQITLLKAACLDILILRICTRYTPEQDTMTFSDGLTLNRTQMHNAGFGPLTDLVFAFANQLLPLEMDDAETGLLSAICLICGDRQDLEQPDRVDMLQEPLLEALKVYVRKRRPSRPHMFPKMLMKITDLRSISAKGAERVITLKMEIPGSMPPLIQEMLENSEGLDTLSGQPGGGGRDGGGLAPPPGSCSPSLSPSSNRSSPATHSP
Description: Transactivation of RARalpha in human COS7 cells at 10 uM by luciferase reporter gene assay. The assay is classed as cell-based. The following applies: COS-7. Background: Reporter assays use an easily measured gene product as a stand-in for the process of interest.

Assay [5] addresses Retinoic acid receptor RXR-alpha/oxysterols receptor LXR-alpha (Homo sapiens) (UniProt P19793+Q13133). Description: Transactivation of LXRalpha/RXRalpha. The assay is classed as protein-complex assay.
Assay [6] concerns the target T4, Retinoic acid receptor RXR-alpha (Homo sapiens, UniProt P19793).
T4 sequence (P19793 whole entry): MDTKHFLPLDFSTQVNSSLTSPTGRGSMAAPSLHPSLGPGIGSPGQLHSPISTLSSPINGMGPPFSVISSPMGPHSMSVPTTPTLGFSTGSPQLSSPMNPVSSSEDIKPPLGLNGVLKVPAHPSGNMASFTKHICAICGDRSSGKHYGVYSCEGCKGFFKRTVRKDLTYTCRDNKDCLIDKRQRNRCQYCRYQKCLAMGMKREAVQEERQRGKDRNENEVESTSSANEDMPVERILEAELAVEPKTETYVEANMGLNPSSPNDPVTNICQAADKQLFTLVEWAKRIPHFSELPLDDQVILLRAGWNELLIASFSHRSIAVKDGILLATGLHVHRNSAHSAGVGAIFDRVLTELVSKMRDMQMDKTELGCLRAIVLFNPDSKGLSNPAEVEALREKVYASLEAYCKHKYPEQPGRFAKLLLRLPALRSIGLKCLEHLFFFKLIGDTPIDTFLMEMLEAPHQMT
The assay is described as follows: Agonist activity at RXRalpha by luciferase reporter gene assay. It counts as functional.

Assay [7] addresses T5, Retinoic acid receptor RXR-alpha (Homo sapiens) (UniProt P19793).
T5 sequence (whole entry): T4 sequence (P19793 whole entry)
The assay is described as follows: Transactivation of RXRalpha in human COS7 cells at 10 uM by luciferase reporter gene assay. The assay is classed as cell-based. The following applies: COS-7.

Each structure is given as a SMILES string. Active and inactive are the calls of the source. The calls are words filed in the database; no cut-off is given here.

One may read the EC50 as the concentration that produces a half-maximal response. A lower EC50 goes with an effect from little substance. Regarding `CCN(c1ccc2c(c1)C(C)(C)CCC2(C)C)c1ccc(-c2nnn[nH]2)cn1`, the result in assay [1], in assay [2] and in assay [4] was inactive. Further, the Activity amounted to 40% in assay [3] and 60% in assay [5]. Besides, a half-maximal response in assay [6] (EC50) required 205 nM.
For the molecule `CCN(c1ccc2c(c1)C(C)(C)CCC2(C)C)c1ccc(C(=O)O)cn1`, the outcome in assay [1], in assay [2] and in assay [4] was inactive. Besides, the Activity in assay [3] and in assay [5] was 60% in each case. In assay [6], this molecule gave an EC50 of 5.28 nM.
Turning to `CCN(c1ccc2c(c1)C(C)(C)CCC2(C)C)c1ccc(C(=O)NO)cn1`, the result in assay [1], in assay [2] and in assay [4] was inactive. The Activity in assay [3] was 20%; in assay [5], 50%.
For `CCN(c1ccc2c(c1)C(C)(C)CCC2(C)C)c1ccc(P(=O)(O)O)cn1`, the outcome in assay [4] and in assay [7] was inactive.
